Values after ≈ are worked out from the molar mass of the structure shown.
Key:
L02 = assay: Cytotoxicity, CCK-8 assay, normal cell line; type: cell-based; details: L02 normal human hepatocytes, 48 h
Description: (§1) A lung cancer cell line (A549), gastric cancer cell line (SGC7901) and human hepatocytes (L02) were used to test the anticancer activity and cytotoxicity of the new compounds. 5-Fluorouracil (5-FU) was used as the positive control against cancer cell lines. The A549, SGC7901 and L02 cells were grown in Dulbecco’s modified Eagle’s medium (DMEM) supplemented with 10% foetal bovine serum (FBS) and antibiotics (100 U/mL penicillin-streptomycin). Cells at 80–90% confluence were split by trypsin (0.25% in PBS; pH 7.4), and the medium was changed at 24 h intervals. The cells were cultured at 37 °C in a 5% CO2 incubator. The cells were passaged three times, then approximately 1 × 10^4 cells were seeded into each well of a 96-well plate and allowed to incubate to allow attachment of the cells to the surface. After 24 h, the medium was replaced with DMEM supplemented with 10% FBS containing various concentrations (0.1, 0.3, 1, 3, 10, and 30 μg/mL) of test compounds. Each concentration was tested in triplicate. After 48 h treatment, 20 µL of CCK-8 solution was added to each well and the optical density measured at 450 nm after 3 h using a microplate reader. The IC50 values were defined as the concentrations inhibiting 50% of cell growth.

A549 = assay: Cytotoxicity, CCK-8 assay; type: cell-based; details: Homo sapiens, A549 lung cancer cells, 48 h
Description: as §1

SGC7901 = assay: Cytotoxicity, CCK-8 assay; type: cell-based; details: Homo sapiens, SGC-7901, SGC7901 gastric cancer cells, 48 h
Description: as §1

[1] = tested on: Staphyiococcus aureus CMCC 25923; assay: Antibacterial MIC, serial dilution; type: cell-based, Staphylococcus aureus; details: Staphylococcus aureus, CMCC25923; S. aureus CMCC 25923, 24 h, 37 °C; read-out: MIC
Description: (§2) Test bacteria were grown to mid-log phase in Mueller–Hinton broth (MHB) or Tryptone Soya Broth (TSB) and diluted 1000-fold in the same medium. Bacteria (10^5 CFU/mL) were inoculated into MHB or TSB and dispensed at 0.2 ml/well into a 96-well microtiter plate. As positive controls, gatifloxacin, moxifloxacin, norfloxacin, oxacillin, and penicillin were used. […] Bacterial growth was determined by measuring the absorption at 630 nm using a microplate reader. All experiments were carried out three times.
(§3) The evaluation of antibacterial activity of all compounds (3a–3j and 6a–6k) was performed by a serial dilution method to determine the MIC against a panel of pathogens comprising five Gram-positive strains (S. aureus (CMCC(B) 26003 and CMCC 25923), Streptococcus mutans BNCC 336931, Enterococcus faecalis CMCC 29212, and Bacillus subtilis CMCC 63501), four Gram-negative strains (E. coli (CMCC 25922 and CMCC 44568) and P. aeruginosa (CMCC 27853 and CMCC 10104)), as well as three methicillin-resistant clinical isolates (S. aureus ATCC 43300 and ATCC 33591, P. aeruginosa ATCC BAA-2111). The results are described in Tables 1 and 2. Gatifloxacin, moxifloxacin, norfloxacin, oxacillin, and penicillin were used as positive controls.

[2] = tested on: Streptococcus mutans BNCC 336931; assay: Antibacterial MIC, serial dilution; type: cell-based; details: Streptococcus mutans, BNCC336931; S. mutans BNCC 336931, 24 h, 37 °C; read-out: MIC
Description: as §2, §3

[3] = tested on: Pseudomonas aeruginosa CMCC 27853; assay: Antibacterial MIC, serial dilution; type: cell-based; details: Pseudomonas aeruginosa, CMCC27853; P. aeruginosa CMCC 27853, 24 h, 37 °C; read-out: MIC
Description: as §2, §3

[4] = tested on: Escherichia coli CMCC 44568; assay: Antibacterial MIC, serial dilution; type: cell-based; details: Escherichia coli, CMCC44568; E. coli CMCC 44568, 24 h, 37 °C; read-out: MIC
Description: as §2, §3

[5] = tested on: Escherichia coli CMCC 25922; assay: Antibacterial MIC, serial dilution; type: cell-based; details: Escherichia coli, CMCC25922; E. coli CMCC 25922, 24 h, 37 °C; read-out: MIC
Description: as §2, §3

[6] = tested on: Staphylococcus aureus CMCC(B)26003; assay: Antibacterial MIC, serial dilution; type: cell-based; details: Staphylococcus aureus; S. aureus CMCC(B)26003, 24 h, 37 °C; read-out: MIC
Description: as §2, §3

[7] = tested on: Pseudomonas aeruginosa CMCC 10104; assay: Antibacterial MIC, serial dilution; type: cell-based; details: Pseudomonas aeruginosa, CMCC10104; P. aeruginosa CMCC 10104, 24 h, 37 °C; read-out: MIC
Description: as §2, §3

[8] = tested on: Enterococcus faecalis CMCC 29212; assay: Antibacterial MIC, serial dilution; type: cell-based; details: Enterococcus faecalis, CMCC29212; E. faecalis CMCC 29212, 24 h, 37 °C; read-out: MIC
Description: as §2, §3

[9] = tested on: Bacillus subtilis CMCC 63501; assay: Antibacterial MIC, serial dilution; type: cell-based; details: Bacillus subtilis, CMCC63501; B. subtilis CMCC 63501, 24 h, 37 °C; read-out: MIC
Description: as §2, §3

[10] = tested on: Staphylococcus aureus ATCC 43300; assay: Antibacterial MIC, multidrug-resistant clinical isolate; type: cell-based; details: Staphylococcus aureus, ATCC43300; multidrug-resistant S. aureus ATCC 43300; read-out: MIC
Description: as §2, §3

[11] = tested on: Staphylococcus aureus ATCC 33591; assay: as above; type: cell-based; details: Staphylococcus aureus, ATCC33591; multidrug-resistant S. aureus ATCC 33591; read-out: MIC
Description: as §2, §3

[12] = tested on: Pseudomonas aeruginosa ATCC BAA-2111; assay: as above; type: cell-based; details: ATCCBAA2111, multidrug-resistant P. aeruginosa ATCC BAA-2111
Description: as §2, §3

Row | Structure (SMILES) | melting point [°C] | IC50 (L02) [µg/mL] | IC50 (A549) [µg/mL] | IC50 (SGC7901) [µg/mL] | MIC [1] [µg/mL] | MIC [2] [µg/mL] | MIC [3] [µg/mL] | MIC [4] [µg/mL] | MIC [5] [µg/mL] | MIC [6] [µg/mL] | MIC [7] [µg/mL] | MIC [8] [µg/mL] | MIC [9] [µg/mL] | MIC [10] [µg/mL] | MIC [11] [µg/mL] | MIC [12] [µg/mL]
1 | N=C(N)NN=Cc1ccc(C#Cc2ccccc2Cl)cc1 [Compound 3e, 2-(4-((2-Chlorophenyl)ethynyl)benzylidene)hydrazine-1-carboximidamide] | 200 to 203 | 12.4 (≈ 41.9 µM) | 4.57 (≈ 15.4 µM) | 0.45 (≈ 1.52 µM) | 2 (≈ 6.74 µM) | 2 (≈ 6.74 µM) | > 128 | 8 (≈ 27 µM) | 2 (≈ 6.74 µM) | 0.5 (≈ 1.68 µM) | 4 (≈ 13.5 µM) | 0.5 (≈ 1.68 µM) | 1 (≈ 3.37 µM) | 2 (≈ 6.74 µM) | 0.5 (≈ 1.68 µM) | 
2 | N=C(N)NN=Cc1ccc(C#Cc2cccc(Cl)c2)cc1 [Compound 3f, 2-(4-((3-Chlorophenyl)ethynyl)benzylidene)hydrazine-1-carboximidamide] | 213 to 214 | 10.2 (≈ 34.5 µM) | 2.55 (≈ 8.59 µM) | 0.3 (≈ 1.01 µM) | 1 (≈ 3.37 µM) | 2 (≈ 6.74 µM) | > 128 | 4 (≈ 13.5 µM) | 2 (≈ 6.74 µM) | 1 (≈ 3.37 µM) | 2 (≈ 6.74 µM) | 0.5 (≈ 1.68 µM) | 0.5 (≈ 1.68 µM) |  |  | 
3 | N=C(N)NN=Cc1ccc(C#Cc2cccc(Br)c2)cc1 [Compound 3i, 2-(4-((3-Bromophenyl)ethynyl)benzylidene)hydrazine-1-carboximidamide] | 223 to 225 | 19.6 (≈ 57.5 µM) | 4.03 (≈ 11.8 µM) | 1.26 (≈ 3.69 µM) | 2 (≈ 5.86 µM) | 1 (≈ 2.93 µM) | > 128 | 2 (≈ 5.86 µM) | 2 (≈ 5.86 µM) | 1 (≈ 2.93 µM) | 2 (≈ 5.86 µM) | 1 (≈ 2.93 µM) | 1 (≈ 2.93 µM) | 2 (≈ 5.86 µM) | 0.5 (≈ 1.47 µM) | 
4 | N=C(N)NN=Cc1ccc(C#CC#Cc2ccccc2)cc1 [Compound 6a, 2-(4-(Phenylbuta-1,3-diyn-1-yl)benzylidene)hydrazine-1-carboximidamide] | 209 to 212 | 13.4 (≈ 46.7 µM) | 2.49 (≈ 8.7 µM) | 1.63 (≈ 5.69 µM) | > 128 | 0.5 (≈ 1.75 µM) | > 128 | 128 (≈ 447 µM) | 128 (≈ 447 µM) | 0.5 (≈ 1.75 µM) | 1 (≈ 3.49 µM) | 0.5 (≈ 1.75 µM) | 0.5 (≈ 1.75 µM) | 4 (≈ 14 µM) | 0.5 (≈ 1.75 µM) | > 64
5 | N=C(N)NN=Cc1ccc(C#CC#Cc2ccccc2F)cc1 [Compound 6b, 2-(4-((2-Fluorophenyl)buta-1,3-diyn-1-yl)benzylidene)hydrazine-1-carboximidamide] | 218 to 220 | 18 (≈ 59.1 µM) | 2.22 (≈ 7.29 µM) | 1.37 (≈ 4.5 µM) | 1 (≈ 3.29 µM) | 0.5 (≈ 1.64 µM) | > 128 | 128 (≈ 421 µM) | 8 (≈ 26.3 µM) | 0.25 (≈ 0.821 µM) | 128 (≈ 421 µM) | 0.5 (≈ 1.64 µM) | 4 (≈ 13.1 µM) | 8 (≈ 26.3 µM) | 1 (≈ 3.29 µM) | 

— PMC6968633, “Synthesis, antibacterial and anticancer activity, and docking study of aminoguanidines containing an alkynyl moiety” (Journal of Enzyme Inhibition and Medicinal Chemistry, 2019)
